Assay results from ChEMBL document CHEMBL1201861, “Genomics of Drug Sensitity in Cancer screening data, Wellcome Trust Sanger Institute”.

Key:
Experiment in all cases: cells
C-33-A = format: functional, cell-based, Homo sapiens; settings: Homo sapiens, C-33-A
Description: SANGER: Inhibition of human C-33-A cell growth in a cell viability assay.

HT-1376 = format: functional, cell-based, Homo sapiens; settings: Homo sapiens, HT-1376
Description: SANGER: Inhibition of human HT-1376 cell growth in a cell viability assay.

PC-14 = format: functional, cell-based, Homo sapiens; settings: Homo sapiens, PC-14
Description: SANGER: Inhibition of human PC-14 cell growth in a cell viability assay.

TGBC24TKB = format: functional, cell-based, Homo sapiens; settings: Homo sapiens, TGBC24TKB
Description: SANGER: Inhibition of human TGBC24TKB cell growth in a cell viability assay.

BEN = format: functional, cell-based, Homo sapiens; settings: Homo sapiens, BEN
Description: SANGER: Inhibition of human BEN cell growth in a cell viability assay.

Calu-3 = format: functional, cell-based, Homo sapiens; settings: Homo sapiens, Calu-3
Description: SANGER: Inhibition of human Calu-3 cell growth in a cell viability assay.

HLE = format: functional, cell-based, Homo sapiens; settings: Homo sapiens, HLE
Description: SANGER: Inhibition of human HLE cell growth in a cell viability assay.

TCC-SUP = format: functional, cell-based, Homo sapiens; settings: Homo sapiens, TCC-SUP
Description: SANGER: Inhibition of human TCCSUP cell growth in a cell viability assay.

Hs-578T = format: functional, cell-based, Homo sapiens; settings: Homo sapiens, Hs-578T
Description: SANGER: Inhibition of human Hs-578-T cell growth in a cell viability assay.

EW-24 = format: functional, cell-based; settings: Homo sapiens
Description: SANGER: Inhibition of human EW-24 cell growth in a cell viability assay.

D-392MG = format: functional, cell-based, Homo sapiens; settings: Homo sapiens, D-392MG
PANC-03-27 = format: functional, cell-based, Homo sapiens; settings: Homo sapiens, PANC-03-27
Description: SANGER: Inhibition of human PANC-03-27 cell growth in a cell viability assay.

A673 = format: functional, cell-based, Homo sapiens; settings: Homo sapiens, A673
Description: SANGER: Inhibition of human A673 cell growth in a cell viability assay.

MSTO-211H = format: functional, cell-based, Homo sapiens; settings: Homo sapiens, MSTO-211H
Description: SANGER: Inhibition of human MSTO-211H cell growth in a cell viability assay.

LN-405 = format: functional, cell-based, Homo sapiens; settings: Homo sapiens, LN-405
Description: SANGER: Inhibition of human LN-405 cell growth in a cell viability assay.

EKVX = format: functional, cell-based, Homo sapiens; settings: Homo sapiens, EKVX
Description: SANGER: Inhibition of human EKVX cell growth in a cell viability assay.

SN12C = format: functional, cell-based, Homo sapiens; settings: Homo sapiens, SN12C
Description: SANGER: Inhibition of human SN12C cell growth in a cell viability assay.

CAMA-1 = format: functional, cell-based, Homo sapiens; settings: Homo sapiens, CAMA-1
Description: SANGER: Inhibition of human CAMA-1 cell growth in a cell viability assay.

A-431 = format: functional, cell-based, Homo sapiens; settings: Homo sapiens, A-431
Description: SANGER: Inhibition of human A431 cell growth in a cell viability assay.

DMS-79 = format: functional, cell-based; settings: Homo sapiens
Description: SANGER: Inhibition of human DMS-79 cell growth in a cell viability assay.

EC-GI-10 = format: functional, cell-based, Homo sapiens; settings: Homo sapiens, EC-GI-10
Description: SANGER: Inhibition of human EC-GI-10 cell growth in a cell viability assay.

MDA-MB-415 = format: functional, cell-based; settings: Homo sapiens
COR-L105 = format: functional, cell-based, Homo sapiens; settings: Homo sapiens, COR-L105
Description: SANGER: Inhibition of human COR-L105 cell growth in a cell viability assay.

8305C = format: functional, cell-based, Homo sapiens; settings: Homo sapiens, 8305C
Description: SANGER: Inhibition of human 8305C cell growth in a cell viability assay.

COLO-679 = format: functional, cell-based, Homo sapiens; settings: Homo sapiens, COLO-679
Description: SANGER: Inhibition of human COLO-679 cell growth in a cell viability assay.

CAL-54 = format: functional, cell-based, Homo sapiens; settings: Homo sapiens, CAL-54
Description: SANGER: Inhibition of human CAL-54 cell growth in a cell viability assay.

HSC-3 = format: functional, cell-based, Homo sapiens; settings: Homo sapiens, HSC-3
Description: SANGER: Inhibition of human HSC-3 cell growth in a cell viability assay.

no-10 = format: functional, cell-based, Homo sapiens; settings: Homo sapiens
Description: SANGER: Inhibition of human no-10 cell growth in a cell viability assay.

RERF-LC-MS = format: functional, cell-based, Homo sapiens; settings: Homo sapiens, RERF-LC-MS
Description: SANGER: Inhibition of human RERF-LC-MS cell growth in a cell viability assay.

SK-MEL3 = format: functional, cell-based, Homo sapiens, SK-MEL-3; settings: Homo sapiens, SK-MEL3
Description: SANGER: Inhibition of human SK-MEL-3 cell growth in a cell viability assay.

A498 = format: functional, cell-based, Homo sapiens; settings: Homo sapiens, A498
Description: SANGER: Inhibition of human A498 cell growth in a cell viability assay.

LU-99A = format: functional, cell-based, Homo sapiens; settings: Homo sapiens, LU-99A
Description: SANGER: Inhibition of human LU-99A cell growth in a cell viability assay.

SW1088 = format: functional, cell-based, Homo sapiens; settings: Homo sapiens, SW1088
Description: SANGER: Inhibition of human SW1088 cell growth in a cell viability assay.

EW-1 = format: functional, cell-based, Homo sapiens; settings: Homo sapiens, EW-1
Description: SANGER: Inhibition of human EW-1 cell growth in a cell viability assay.

QIMR-WIL = format: functional, cell-based; settings: Homo sapiens
Description: SANGER: Inhibition of human QIMR-WIL cell growth in a cell viability assay.

BT-474 = format: functional, cell-based, Homo sapiens; settings: Homo sapiens, BT-474
Description: SANGER: Inhibition of human BT-474 cell growth in a cell viability assay.

Mo = format: functional, cell-based; settings: Homo sapiens
Description: SANGER: Inhibition of human Mo-T cell growth in a cell viability assay.

NCI-H2030 = format: functional, cell-based, Homo sapiens; settings: Homo sapiens, NCI-H2030
Description: SANGER: Inhibition of human NCI-H2030 cell growth in a cell viability assay.

NCI-H596 = format: functional, cell-based, Homo sapiens; settings: Homo sapiens, NCI-H596
Description: SANGER: Inhibition of human NCI-H596 cell growth in a cell viability assay.

SW13 = format: functional, cell-based, Homo sapiens; settings: Homo sapiens, SW13
Description: SANGER: Inhibition of human SW13 cell growth in a cell viability assay.

DK-MG = format: functional, cell-based, Homo sapiens; settings: Homo sapiens, DK-MG
Description: SANGER: Inhibition of human DK-MG cell growth in a cell viability assay.

NCI-H226 = format: functional, cell-based, Homo sapiens; settings: Homo sapiens, NCI-H226
Description: SANGER: Inhibition of human NCI-H226 cell growth in a cell viability assay.

SW1417 = format: functional, cell-based, Homo sapiens; settings: Homo sapiens, SW1417
Description: SANGER: Inhibition of human SW1417 cell growth in a cell viability assay.

SNB-75 = format: functional, cell-based, Homo sapiens; settings: Homo sapiens, SNB-75
Description: SANGER: Inhibition of human SNB75 cell growth in a cell viability assay.

D-336MG = format: functional, cell-based, Homo sapiens; settings: Homo sapiens, D-336MG
Description: SANGER: Inhibition of human D-336MG cell growth in a cell viability assay.

CAL-27 = format: functional, cell-based, Homo sapiens; settings: Homo sapiens, CAL-27
Description: SANGER: Inhibition of human CAL-27 cell growth in a cell viability assay.

C3A = format: functional, cell-based, Homo sapiens; settings: Homo sapiens, C3A
Description: SANGER: Inhibition of human C3A cell growth in a cell viability assay.

SK-HEP1 = format: functional, cell-based, Homo sapiens, SK-HEP-1; settings: Homo sapiens, SK-HEP1
Description: SANGER: Inhibition of human SK-HEP-1 cell growth in a cell viability assay.

NCI-H2052 = format: functional, cell-based, Homo sapiens; settings: Homo sapiens, NCI-H2052
Description: SANGER: Inhibition of human NCI-H2052 cell growth in a cell viability assay.

MDA-MB-361 = format: functional, cell-based, Homo sapiens; settings: Homo sapiens, MDA-MB-361

## CN(C)C/C=C/C(=O)Nc1cc2c(Nc3ccc(F)c(Cl)c3)ncnc2cc1O[C@H]1CCOC1 [AFATINIB]
C-33-A
  IC50: > 500 nM
HT-1376
  IC50: > 500 nM
PC-14
  IC50: 56.7 nM
TGBC24TKB
  IC50: > 500 nM
BEN
  IC50: > 500 nM
Calu-3
  IC50: > 500 nM
HLE
  IC50: 350 nM
TCC-SUP
  IC50: > 500 nM
Hs-578T
  IC50: > 500 nM
EW-24
  IC50: > 500 nM
D-392MG
  IC50: > 500 nM
PANC-03-27
  IC50: > 500 nM
A673
  IC50: > 500 nM
MSTO-211H
  IC50: > 500 nM
LN-405
  IC50: > 500 nM
EKVX
  IC50: > 500 nM
SN12C
  IC50: > 500 nM
CAMA-1
  IC50: > 500 nM
A-431
  IC50: 482 nM
DMS-79
  IC50: > 500 nM
EC-GI-10
  IC50: 59.1 nM
MDA-MB-415
  IC50: > 500 nM
COR-L105
  IC50: 211 nM
8305C
  IC50: > 500 nM
COLO-679
  IC50: > 500 nM
CAL-54
  IC50: > 500 nM
HSC-3
  IC50: 212 nM
no-10
  IC50: > 500 nM
RERF-LC-MS
  IC50: > 500 nM
SK-MEL3
  IC50: > 500 nM
A498
  IC50: 407 nM
LU-99A
  IC50: > 500 nM
SW1088
  IC50: > 500 nM
EW-1
  IC50: > 500 nM
QIMR-WIL
  IC50: > 500 nM
BT-474
  IC50: 49.9 nM
Mo
  IC50: > 500 nM
NCI-H2030
  IC50: > 500 nM
NCI-H596
  IC50: > 500 nM
SW13
  IC50: 162 nM
DK-MG
  IC50: > 500 nM
NCI-H226
  IC50: > 500 nM
SW1417
  IC50: > 500 nM
SNB-75
  IC50: > 500 nM
D-336MG
  IC50: > 500 nM
CAL-27
  IC50: 176 nM
C3A
  IC50: > 500 nM
SK-HEP1
  IC50: > 500 nM
NCI-H2052
  IC50: > 500 nM
MDA-MB-361
  IC50: > 500 nM

## O=C(NOCC1CC1)c1ccc(F)c(F)c1Nc1ccc(I)cc1Cl [CI-1040]
C-33-A
  IC50: > 10000 nM
HT-1376
  IC50: > 10000 nM
PC-14
  IC50: > 10000 nM
TGBC24TKB
  IC50: > 10000 nM
BEN
  IC50: > 10000 nM
Calu-3
  IC50: > 10000 nM
HLE
  IC50: > 10000 nM
TCC-SUP
  IC50: > 10000 nM
Hs-578T
  IC50: 5540 nM
EW-24
  IC50: > 10000 nM
D-392MG
  IC50: > 10000 nM
PANC-03-27
  IC50: 3350 nM
A673
  IC50: 8630 nM
MSTO-211H
  IC50: 9960 nM
LN-405
  IC50: > 10000 nM
EKVX
  IC50: > 10000 nM
SN12C
  IC50: 3250 nM
CAMA-1
  IC50: > 10000 nM
A-431
  IC50: 6240 nM
DMS-79
  IC50: > 10000 nM
EC-GI-10
  IC50: > 10000 nM
MDA-MB-415
  IC50: > 10000 nM
COR-L105
  IC50: 6650 nM
8305C
  IC50: 7100 nM
COLO-679
  IC50: 327 nM
CAL-54
  IC50: 5030 nM
HSC-3
  IC50: 3230 nM
no-10
  IC50: > 10000 nM
RERF-LC-MS
  IC50: 5690 nM
SK-MEL3
  IC50: 3850 nM
A498
  IC50: > 10000 nM
LU-99A
  IC50: 5660 nM
SW1088
  IC50: 6920 nM
EW-1
  IC50: > 10000 nM
QIMR-WIL
  IC50: > 10000 nM
BT-474
  IC50: > 10000 nM
Mo
  IC50: > 10000 nM
NCI-H2030
  IC50: > 10000 nM
NCI-H596
  IC50: > 10000 nM
SW13
  IC50: > 10000 nM
DK-MG
  IC50: 9210 nM
NCI-H226
  IC50: > 10000 nM
SW1417
  IC50: 9570 nM
SNB-75
  IC50: > 10000 nM
D-336MG
  IC50: > 10000 nM
CAL-27
  IC50: 2390 nM
C3A
  IC50: > 10000 nM
SK-HEP1
  IC50: 5930 nM
NCI-H2052
  IC50: > 10000 nM
MDA-MB-361
  IC50: > 10000 nM

## Nc1ccn([C@@H]2O[C@H](CO)[C@@H](O)[C@@H]2O)c(=O)n1 [CYTARABINE]
C-33-A
  IC50: 551 nM
HT-1376
  IC50: 1680 nM
PC-14
  IC50: 610 nM
TGBC24TKB
  IC50: 1850 nM
BEN
  IC50: > 2000 nM
Calu-3
  IC50: > 2000 nM
HLE
  IC50: 1590 nM
TCC-SUP
  IC50: > 2000 nM
Hs-578T
  IC50: 839 nM
EW-24
  IC50: 794 nM
PANC-03-27
  IC50: 897 nM
A673
  IC50: 224 nM
MSTO-211H
  IC50: 324 nM
LN-405
  IC50: > 2000 nM
EKVX
  IC50: > 2000 nM
SN12C
  IC50: 623 nM
CAMA-1
  IC50: > 2000 nM
A-431
  IC50: > 2000 nM
DMS-79
  IC50: > 2000 nM
EC-GI-10
  IC50: 557 nM
MDA-MB-415
  IC50: > 2000 nM
COR-L105
  IC50: 160 nM
8305C
  IC50: > 2000 nM
COLO-679
  IC50: > 2000 nM
CAL-54
  IC50: 940 nM
HSC-3
  IC50: 400 nM
no-10
  IC50: > 2000 nM
RERF-LC-MS
  IC50: 1760 nM
SK-MEL3
  IC50: > 2000 nM
A498
  IC50: > 2000 nM
LU-99A
  IC50: 266 nM
SW1088
  IC50: > 2000 nM
EW-1
  IC50: 139 nM
QIMR-WIL
  IC50: > 2000 nM
BT-474
  IC50: > 2000 nM
Mo
  IC50: > 2000 nM
NCI-H2030
  IC50: 1050 nM
NCI-H596
  IC50: > 2000 nM
SW13
  IC50: 476 nM
DK-MG
  IC50: > 2000 nM
NCI-H226
  IC50: > 2000 nM
SW1417
  IC50: > 2000 nM
SNB-75
  IC50: > 2000 nM
D-336MG
  IC50: 805 nM
CAL-27
  IC50: 1930 nM
C3A
  IC50: > 2000 nM
SK-HEP1
  IC50: 556 nM
NCI-H2052
  IC50: > 2000 nM
MDA-MB-361
  IC50: > 2000 nM
